Assay results: patent US6506746B2, “Method for treating cognitive dysfunction” (Eli Lilly and Company, priority 1997, dated 2003)

Tests used:
[1] = detection of radiolabelled compound in saliva; format: in vivo
Description: For example, in the treatment of adult humans, dosages of from about 0.25 to 50 mg, preferably from 1 to 30 mg, and most preferably 1 to 20 mg per day may be used. A once a day dosage is normally sufficient, although divided doses may be administered. For treatment of cognitive dysfunction, a dose range of from 1 to 30 mg, preferably 1 to 20 mg per day is suitable.

[2] = test system: elderly patients with cognitive dysfunction; test: double-blind multicenter clinical trial in elderly patients with cognitive dysfunction; format: in vivo, human; conditions: 237 elderly patients (>=65 years), versus placebo; BEHAVE-AD, BPRS and CGI rating scales
Description: Changes in behavioral manifestations were measured using the BEHAVE-AD, BPRS, and CGI rating scales, which are known and available to the skilled artisan.

[3] = test system: muscarinic cholinergic receptor; conditions: results of pharmacological studies
5-HT1C receptor = target: T1, 5-HT1C receptor (Homo sapiens, UniProt P28335); test: 5-HT1C receptor activity
T1 sequence (P28335 33-458): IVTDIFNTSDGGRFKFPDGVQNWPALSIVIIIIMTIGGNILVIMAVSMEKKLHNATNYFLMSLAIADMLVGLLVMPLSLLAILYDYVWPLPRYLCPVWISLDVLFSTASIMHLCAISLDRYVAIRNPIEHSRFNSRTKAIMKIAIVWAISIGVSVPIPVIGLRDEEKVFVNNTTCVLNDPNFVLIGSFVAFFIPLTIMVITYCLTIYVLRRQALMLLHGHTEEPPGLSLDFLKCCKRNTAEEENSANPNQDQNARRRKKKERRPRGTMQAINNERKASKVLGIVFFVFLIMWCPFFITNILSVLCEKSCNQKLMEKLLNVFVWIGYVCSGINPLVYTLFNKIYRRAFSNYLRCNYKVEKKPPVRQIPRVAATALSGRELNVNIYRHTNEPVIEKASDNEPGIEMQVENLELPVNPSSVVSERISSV

Structure (SMILES)	detection in saliva [1]	changes in behavioral manifestations [2]	muscarinic cholinergic receptor activity [3]	activity at the 5-HT1C receptor (5-HT1C receptor)
Cc1cc2c(s1)Nc1ccccc1N=C2N1CCN(C)CC1 [2-methyl-4-(4-methyl-1-piperazinyl)-10H-thieno[2,3-b][1,5]benzodiazepine]	can be detected in the saliva	can be useful for the treatment of behavioral manifestations of cognitive dysfunction	has muscarinic cholinergic receptor activity	–
Cc1cc2c(s1)Nc1ccccc1N=C2N1CCN(C)CC1 [anhydrous Form I compound, 2-methyl-4-(4-methyl-1-piperazinyl)-10H-thieno[2,3-b][1,5]benzodiazepine]	–	–	–	active
